We go through one compound from US20240271071A1, “METHOD AND APPARATUS FOR FORMING A MICROFLUIDIC GEL STRUCTURE” (Mimetas B.V., priority 2021, published 2024).

Structures are written as SMILES.

For this test, the system named is HCAEC and HCASMC co-culture. Nature of the test: Visualising contractile lumen (vasodilation/vasoconstriction) in coronary artery tubule model. Format: cell-based, Human. The note with it: Sildenafil at day 6, 5 μM, 50 μM and 500 μM, after Norepinephrine at day 3; phase contrast images, 30 minutes post-exposure. Here is the method:
For this example, a 3-lane OrganoPlate® ([…]) with 400 μm wide lanes was used, which comprises a microfluidic network of 3 lanes and two capillary pressure barriers. The network was filled with 50 μL HBSS in the observation window (the point where the 3 lanes converge) to provide additional humidity to the plate. The central lane was filled at the inlet with a neutralised bovine type I atelocollagen solution PureCol® EZ Gel 5 mg/ml (Advanced BioMatrix); the solution was pinned at the capillary pressure barrier leaving a free-standing meniscus at the air-liquid interface in the upper and lower lane. A 30 μL solution of HBSS was introduced into the inlet of the centre lane, and a 1 μL solution of 5% FBS in PBS was introduced at the hole of the outlet of the centre lane forming a dome shape as in Example 1. […] After 1 minute 50 μL of HBSS was added to the outlet and the OrganoPlate was placed in a humidity-controlled environment at 37° C. and 5% CO2 for 1 hour. For cell seeding, 1 μL of a cell suspension containing 10,000 cell/μL Primary Human Coronary Artery Endothelial Cells (HCAEC) and 2,500 cell/μL Primary Human Coronary Artery Smooth Muscle Cells (HCASMC) was seeded in the outlet of the middle lane. The cell suspension was driven into the microfluidic network by means of Laplace pressure due to the surface tension of the cell pellet. Cells were left to attach for between 2-6 hours. […]

As to `CCCc1nn(C)c2c(=O)[nH]c(-c3cc(S(=O)(=O)N4CCN(C)CC4)ccc3OCC)nc12` [Sildenafil], the “contraction of the tubule / change of lumen diameter upon exposure to a stimulus” value is on record as “contraction”.
